Patent US8148391B2 (Cephalon, Inc., priority 2006, dated 2012)
Where two headings read alike, the source gives them in different places. One block for each compound: values may come before it.

How the values were obtained:
[1] = target: T1, baculovirus-expressed ALK (Homo sapiens, UniProt Q9UM73); test: ALK Kinase Assay (ELISA-type, time-resolved fluorescence); type: biochemical
T1 construct: host or cells: baculovirus expression system
How it was run: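 Substrate coating: phospholipase C-γ, 10 μg/mL in TBS. Kinase step: 30 ng/ml ALK, 15 min, 37° C. Detection and analysis: Eu-N1 PT66 antibody, with IC50 fitted as a sigmoidal variable-slope dose-response curve.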

[2] = target: T2, c-Met (cytoplasmic domain) (Homo sapiens, UniProt P08581); test: c-Met Kinase Assay (same methods as for ALK, with modifications); type: biochemical
T2 construct: 10 ng/mL c-Met (cytoplasmic domain, Invitrogen Corporation #PV3143); purchased Invitrogen Corporation PV3143
T2 sequence (P08581 956-1390 limits assumed): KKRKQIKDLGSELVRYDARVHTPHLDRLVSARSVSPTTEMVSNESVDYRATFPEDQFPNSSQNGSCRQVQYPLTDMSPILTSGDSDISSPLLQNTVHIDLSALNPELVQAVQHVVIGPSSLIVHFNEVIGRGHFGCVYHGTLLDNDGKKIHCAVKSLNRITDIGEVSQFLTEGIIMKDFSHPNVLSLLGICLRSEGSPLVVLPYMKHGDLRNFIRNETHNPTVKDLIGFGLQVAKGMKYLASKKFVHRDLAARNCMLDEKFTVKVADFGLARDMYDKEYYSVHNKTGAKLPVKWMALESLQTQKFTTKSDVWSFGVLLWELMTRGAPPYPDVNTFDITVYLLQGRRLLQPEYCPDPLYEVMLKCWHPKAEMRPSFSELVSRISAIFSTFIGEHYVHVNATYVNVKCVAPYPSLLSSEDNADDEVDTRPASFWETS
How it was run: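 This plate-based kinase format uses immobilized phospholipase C-γ as substrate, phosphorylated by c-Met cytoplasmic domain (10 ng/mL) at 37° C for 15 minutes.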

[3] = 1 μM ATP (Km level), read-out: ALK Activity (ALK Kinase Inhibition, IC50)
[4] = 1 μM ATP (Km level), read-out: cMet Activity (c-Met Kinase Inhibition, IC50)
[5] = 1 μM ATP (Km level), 30 ng/ml ALK, 37° C., 15 minutes, read-out: ALK Activity (ALK kinase inhibition, IC50 class)
[6] = 1 μM ATP (Km level), 10 ng/mL c-Met, read-out: cMet Activity (c-Met kinase inhibition, IC50 class)
[7] = ALK kinase inhibition, 1 μM ATP, read-out: ALK Activity
[8] = c-Met kinase inhibition, 1 μM ATP, read-out: cMet Activity
[9] = ALK kinase inhibition, 1 μM ATP (Km level), read-out: ALK Activity
[10] = c-Met kinase inhibition, 1 μM ATP (Km level), read-out: cMet Activity

T1 sequence (Q9UM73 19-1620): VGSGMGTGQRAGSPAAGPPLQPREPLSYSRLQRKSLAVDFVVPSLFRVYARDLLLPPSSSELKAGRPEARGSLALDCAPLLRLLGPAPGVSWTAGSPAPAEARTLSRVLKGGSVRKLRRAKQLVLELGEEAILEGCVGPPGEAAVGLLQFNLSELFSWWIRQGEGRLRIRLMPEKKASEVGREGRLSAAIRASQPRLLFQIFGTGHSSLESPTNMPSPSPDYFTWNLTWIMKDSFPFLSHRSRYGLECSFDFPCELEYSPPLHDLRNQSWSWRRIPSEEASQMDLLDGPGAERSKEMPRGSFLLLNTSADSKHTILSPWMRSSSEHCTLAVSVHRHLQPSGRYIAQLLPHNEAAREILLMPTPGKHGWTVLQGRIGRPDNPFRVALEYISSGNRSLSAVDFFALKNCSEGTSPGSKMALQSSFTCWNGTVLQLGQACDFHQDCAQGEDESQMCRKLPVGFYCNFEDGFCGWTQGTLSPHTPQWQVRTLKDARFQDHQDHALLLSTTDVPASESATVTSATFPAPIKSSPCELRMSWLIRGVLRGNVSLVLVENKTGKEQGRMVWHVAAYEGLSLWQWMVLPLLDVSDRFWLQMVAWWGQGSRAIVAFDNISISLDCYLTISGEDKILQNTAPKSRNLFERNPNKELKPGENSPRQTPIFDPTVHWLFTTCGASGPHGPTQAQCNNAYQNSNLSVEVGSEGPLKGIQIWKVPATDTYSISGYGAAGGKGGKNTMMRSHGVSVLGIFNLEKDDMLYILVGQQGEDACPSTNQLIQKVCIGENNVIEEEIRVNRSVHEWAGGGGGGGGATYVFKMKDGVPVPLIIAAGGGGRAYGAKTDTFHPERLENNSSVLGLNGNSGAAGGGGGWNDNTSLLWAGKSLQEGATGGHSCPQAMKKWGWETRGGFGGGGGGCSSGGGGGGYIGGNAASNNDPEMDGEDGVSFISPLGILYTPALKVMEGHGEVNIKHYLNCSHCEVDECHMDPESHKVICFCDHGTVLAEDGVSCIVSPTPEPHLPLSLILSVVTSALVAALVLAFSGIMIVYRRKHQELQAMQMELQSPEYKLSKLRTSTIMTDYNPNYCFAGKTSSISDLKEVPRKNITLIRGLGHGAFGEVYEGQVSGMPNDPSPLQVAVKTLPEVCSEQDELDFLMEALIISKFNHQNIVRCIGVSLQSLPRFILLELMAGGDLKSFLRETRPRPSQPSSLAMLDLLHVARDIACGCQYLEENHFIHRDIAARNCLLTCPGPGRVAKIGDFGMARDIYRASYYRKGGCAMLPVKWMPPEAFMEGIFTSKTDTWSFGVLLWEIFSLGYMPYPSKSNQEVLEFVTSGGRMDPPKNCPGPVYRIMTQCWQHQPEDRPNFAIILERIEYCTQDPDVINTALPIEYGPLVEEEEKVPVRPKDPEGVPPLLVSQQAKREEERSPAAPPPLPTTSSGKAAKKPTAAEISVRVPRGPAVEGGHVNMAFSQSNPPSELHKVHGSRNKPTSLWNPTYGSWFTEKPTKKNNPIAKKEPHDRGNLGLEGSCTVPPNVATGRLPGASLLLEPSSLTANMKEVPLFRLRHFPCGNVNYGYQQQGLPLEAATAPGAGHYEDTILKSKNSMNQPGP

IC50 [1, 3]: < 0.1 µM
IC50 [2, 4]: < 0.1 µM
Compound: CC1(C)CCC(=O)Nc2cc(Nc3ncc(Cl)c(Nc4c(F)cccc4OCC#N)n3)ccc21 [Example 930, {2-[5-Chloro-2-(5,5-dimethyl-2-oxo-2,3,4,5-tetrahydro-1H-1-benzazepin-8-ylamino)-pyrimidin-4-ylamino]-3-fluoro-phenoxy}-acetonitrile]

IC50 [1, 5]: 0.1 to 1 µM
IC50 [2, 6]: < 0.1 µM
Compound: C#CCNC(=O)c1cccc(F)c1Nc1nc(Nc2ccc3c(c2)OCCCN3CC)ncc1Cl [Example 1407, 2-[5-Chloro-2-(9-ethyl-6,7,8,9-tetrahydro-5-oxa-9-aza-benzocyclohepten-3-ylamino)-pyrimidin-4-ylamino]-3-fluoro-N-prop-2-ynyl-benzamide]

IC50 [1, 3]: < 0.1 µM
IC50 [2, 4]: > 10 µM
Compound: COCC(COC)N1CCc2cc(Nc3ncc(Cl)c(Nc4ccc(Cl)cc4S(=O)(=O)N(C)C)n3)c(OC)cc2CC1 [Example 838, 5-Chloro-2-{5-chloro-2-[8-methoxy-3-(2-methoxy-1-methoxymethyl-ethyl)-2,3,4,5-tetrahydro-1H-benzo[d]azepin-7-ylamino]-pyrimidin-4-ylamino}-N,N-dimethyl-benzenesulfonamide]

IC50 [1, 7]: < 0.1 µM
IC50 [2, 8]: 1 to 10 µM
Compound: CCN1CCCC(C)(C)c2ccc(Nc3ncc(Cl)c(N[C@H]4[C@@H](C(N)=O)[C@@H]5C=C[C@H]4C5)n3)cc21 [Example 1634, (1S,2S,3R,4R)-3-[5-Chloro-2-(1-ethyl-5,5-dimethyl-2,3,4,5-tetrahydro-1H-benzo[b]azepin-8-ylamino)-pyrimidin-4-ylamino]-bicyclo[2.2.1]hept-5-ene-2-carboxylic acid amide]

IC50 [1, 7]: 0.1 to 1 µM
IC50 [2, 8]: < 0.1 µM
Compound: CNC(=O)c1cccc(Cl)c1Nc1nc(Nc2ccc3c(c2)CNC(=O)CC3)ncc1Cl [Example 1796, 3-Chloro-2-[5-chloro-2-(3-oxo-2,3,4,5-tetrahydro-1H-benzo[c]azepin-8-ylamino)-pyrimidin-4-ylamino]-N-methylbenzamide]

IC50 [1, 5]: < 0.1 µM
IC50 [2, 6]: > 10 µM
Compound: COCCNC1CCc2cc(Nc3ncc(Cl)c(Nc4ccccc4-n4cccn4)n3)c(OC)cc2CC1 (stereo not drawn) [Example 1085, 5-Chloro-N*2*-[3-methoxy-7-(2-methoxy-ethylamino)-6,7,8,9-tetrahydro-5H-benzocyclohepten-2-yl]-N*4*-(2-pyrazol-1-yl-phenyl)-pyrimidine-2,4-diamine]

IC50 [1, 9]: 1 to 10 µM
IC50 [2, 10]: 1 to 10 µM
Compound: C#CCNc1nc(Nc2ccc3c(c2)CCN(CC)CC3)ncc1Cl [Example 153, 5-Chloro-N*2*-(3-ethyl-2,3,4,5-tetrahydro-1H-benzo[d]azepin-7-yl)-N*4*-prop-2-ynyl-pyrimidine-2,4-diamine]

IC50 [1, 3]: 0.1 to 1 µM
IC50 [2, 4]: 1 to 10 µM
Compound: CNC(=O)c1cccc(Nc2nc(Nc3ccc4c(c3)CCCC(=O)N4C)ncc2Cl)c1 [Example 668, 3-[5-Chloro-2-(1-methyl-2-oxo-2,3,4,5-tetrahydro-1H-benzo[b]azepin-7-ylamino)-pyrimidin-4-ylamino]-N-methyl-benzamide]

Compound: CS(=O)(=O)Nc1ccccc1Nc1nc(Nc2ccc3c(c2)C2CCC3CN(C(=O)C(F)(F)F)C2)ncc1Cl (stereo not drawn) [Example 291, N-(2-{5-Chloro-2-[10-(2,2,2-trifluoro-acetyl)-10-aza-tricyclo[6.3.2.0*2,7*]trideca-2,4,6-trien-4-ylamino]-pyrimidin-4-ylamino}-phenyl)-methanesulfonamide]
IC50 [1, 9]: < 0.1 µM
IC50 [2, 10]: 1 to 10 µM

IC50 [1, 9]: < 0.1 µM
IC50 [2, 10]: < 0.1 µM
Compound: CCN1CCc2ccc(Nc3ncc(Cl)c(Nc4ccccc4C(=O)NC)n3)cc2CC1 [Example 31, 2-[5-Chloro-2-(3-ethyl-2,3,4,5-tetrahydro-1H-benzo[d]azepin-7-ylamino)-pyrimidin-4-ylamino]-N-methyl-benzamide]

IC50 [1, 9]: 0.1 to 1 µM
IC50 [2, 10]: 1 to 10 µM
Compound: CC1CNC(=O)c2c(Nc3ncc(Cl)c(N[C@@H]4CCCC[C@H]4NS(C)(=O)=O)n3)cccc2N1C(=O)C(F)(F)F (stereo partly drawn) [Example 231, N-((1R,2R)-2-{5-Chloro-2-[2-methyl-5-oxo-1-(2,2,2-trifluoro-acetyl)-2,3,4,5-tetrahydro-1H-benzo[e][1,4]diazepin-6-ylamino]-pyrimidin-4-ylamino}-cyclohexyl)-methanesulfonamide]

IC50 [1, 3]: 0.1 to 1 µM
IC50 [2, 4]: 1 to 10 µM
Compound: CNC(=O)c1cccc(Nc2nc(Nc3ccc4c(c3)CCN(CCOC)CC4)ncc2Cl)c1 [Example 673, 3-{5-Chloro-2-[3-(2-methoxy-ethyl)-2,3,4,5-tetrahydro-1H-benzo[d]azepin-7-ylamino]-pyrimidin-4-ylamino}-N-methyl-benzamide]

IC50 [1, 3]: < 0.1 µM
IC50 [2, 4]: > 10 µM
Compound: CCN1C(=O)CCCc2cc(Nc3ncc(Cl)c(Nc4ccccc4-c4nccn4C)n3)c(OC)cc21 [Example 996, 7-{5-Chloro-4-[2-(1-methyl-1H-imidazol-2-yl)-phenylamino]-pyrimidin-2-ylamino}-1-ethyl-8-methoxy-1,3,4,5-tetrahydro-benzo[b]azepin-2-one]

IC50 [1, 9]: < 0.1 µM
IC50 [2, 10]: 1 to 10 µM
Compound: C#CCN1CCc2ccc(Nc3ncc(Cl)c(Nc4ccc(N5CCOCC5)cc4OC)n3)cc2CC1 [Example 324, 5-Chloro-N*4*-(2-methoxy-4-morpholin-4-yl-phenyl)-N*2*-(3-prop-2-ynyl-2,3,4,5-tetrahydro-1H-benzo[d]azepin-7-yl)-pyrimidine-2,4-diamine]

IC50 [1, 7]: 1 to 10 µM
IC50 [2, 8]: 1 to 10 µM
Compound: 8-[5-Chloro-4-(2-pyrazol-1-yl-phenylamino)-pyrimidin-2-ylamino]-3-methyl-1,3,4,5-tetrahydro-benzo[d]azepin-2-one [Example 1819]

IC50 [1, 9]: < 0.1 µM
IC50 [2, 10]: < 0.1 µM
Compound: CN1C(=O)CCCc2cc(Nc3ncc(Cl)c(Nc4ccc(N5CCCCC5)cc4C(N)=O)n3)ccc21 [Example 354, 2-[5-Chloro-2-(1-methyl-2-oxo-2,3,4,5-tetrahydro-1H-benzo[b]azepin-7-ylamino)-pyrimidin-4-ylamino]-5-piperidin-1-yl-benzamide]

IC50 [1, 7]: < 0.1 µM
IC50 [2, 8]: 0.1 to 1 µM
Compound: CN1C(=O)CCC(C)(C)c2cc(Nc3ncc(Cl)c(N[C@H]4[C@@H](C(N)=O)[C@@H]5C=C[C@H]4C5)n3)ccc21 [Example 1571, (1S,2S,3R,4R)-3-[5-Chloro-2-(1,5,5-trimethyl-2-oxo-2,3,4,5-tetrahydro-1H-benzo[b]azepin-7-ylamino)-pyrimidin-4-ylamino]-bicyclo[2.2.1]hept-5-ene-2-carboxylic acid amide]

IC50 [1, 7]: < 0.1 µM
IC50 [2, 8]: 0.1 to 1 µM
Compound: COCCN1C(=O)CCC(C)(C)c2ccc(Nc3ncc(Cl)c(Nc4ccccc4OCC#N)n3)cc21 [Example 1582, (2-{5-Chloro-2-[1-(2-methoxy-ethyl)-5,5-dimethyl-2-oxo-2,3,4,5-tetrahydro-1H-benzo[b]azepin-8-ylamino]-pyrimidin-4-ylamino}-phenoxy)-acetonitrile]

IC50 [1, 7]: 0.1 to 1 µM
IC50 [2, 8]: 0.1 to 1 µM
Compound: CNC(=O)c1cccc(Cl)c1Nc1nc(Nc2ccc3c(c2)-c2nccn2CCC3)ncc1Cl [Example 1845, 2-[5-Chloro-2-(5,6-dihydro-4H-1,3a-diaza-benzo[e]azulen-9-ylamino)-pyrimidin-4-ylamino]-3-chloro-N-methyl-benzamide]

IC50 [1, 9]: < 0.1 µM
IC50 [2, 10]: 1 to 10 µM
Compound: CC1(C)CCC(=O)Nc2ccc(Nc3ncc(Cl)c(Nc4ccccc4-c4ncc[nH]4)n3)cc21 [Example 220, 7-{5-Chloro-4-[2-(1H-imidazol-2-yl)-phenylamino]-pyrimidin-2-ylamino}-5,5-dimethyl-1,3,4,5-tetrahydro-benzo[b]azepin-2-one]

IC50 [1, 5]: < 0.1 µM
IC50 [2, 6]: < 0.1 µM
Compound: CCN1CCCOc2ccc(Nc3ncc(Cl)c(Nc4c(F)cc(-c5cnn(C)c5)cc4C(=O)NC)n3)cc21 [Example 1425, 2-[5-Chloro-2-(9-ethyl-6,7,8,9-tetrahydro-5-oxa-9-aza-benzocyclohepten-2-ylamino)-pyrimidin-4-ylamino]-3-fluoro-N-methyl-5-(1-methyl-1H-pyrazol-4-yl)-benzamide]

IC50 [1, 7]: < 0.1 µM
IC50 [2, 8]: 1 to 10 µM
Compound: CN(C)[C@@H]1CCN(S(=O)(=O)c2ccccc2Nc2nc(Nc3ccc4c(c3)NC(=O)CCC4(C)C)ncc2Cl)C1 [Example 1625, 8-{5-Chloro-4-[2-((R)-3-dimethylamino-pyrrolidine-1-sulfonyl)-phenylamino]-pyrimidin-2-ylamino}-5,5-dimethyl-1,3,4,5-tetrahydro-benzo[b]azepin-2-one]

IC50 [1, 7]: 1 to 10 µM
IC50 [2, 8]: 1 to 10 µM
Compound: CC(C)[C@@H](Nc1nc(Nc2ccc3c(c2)CC(=O)N(C)CC3)ncc1Cl)C(N)=O [Example 1822, (R)-2-[5-Chloro-2-(3-methyl-4-oxo-2,3,4,5-tetrahydro-1H-benzo[d]azepin-7-ylamino)-pyrimidin-4-ylamino]-3-methyl-butyramide]

IC50 [1, 5]: < 0.1 µM
IC50 [2, 6]: 0.1 to 1 µM
Compound: CNC(=O)c1ccc([N+](=O)[O-])cc1Nc1nc(Nc2ccc3c(c2)C(C)(C)CCC(=O)N3)ncc1Cl [Example 1235, 2-[5-Chloro-2-(5,5-dimethyl-2-oxo-2,3,4,5-tetrahydro-1H-1-benzazepin-7-ylamino)-pyrimidin-4-ylamino]-N-methyl-4-nitro-benzamide]
